According to ChEMBL document CHEMBL5442175, “EUbOPEN Chemogenomics Library - PDSP Secondary Binding” (2024):

Tests used:
[1] = biological target: Sigma intracellular receptor 2 (Homo sapiens, UniProt Q5BJF2); experiment: (§1) PDSP Secondary Binding target: TMEM97 - Compounds are tested at 10 uM concentration, plate are incubated at room temperature in the dark for 90 minutes. Reaction are stopped by vacuum filtration onto 0.3% polyethyleneimine soaked filter mats using Filtermate harvester. Scintillation cocktail is then melted onto microwave-dried filters on a hot plate and the radio activity is counted in Microbia counter.
Sigma intracellular receptor 2, sequence (Q5BJF2 whole entry): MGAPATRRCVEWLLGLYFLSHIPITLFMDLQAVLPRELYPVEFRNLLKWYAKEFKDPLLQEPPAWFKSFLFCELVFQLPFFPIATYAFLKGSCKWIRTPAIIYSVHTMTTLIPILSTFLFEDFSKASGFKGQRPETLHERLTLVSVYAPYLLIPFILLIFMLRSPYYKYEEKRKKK

[2] = biological target: T1, Alpha-2B adrenergic receptor (Homo sapiens, UniProt P18089); experiment: as §1, with “ADRA2B” for “TMEM97”
T1 sequence (P18089 whole entry): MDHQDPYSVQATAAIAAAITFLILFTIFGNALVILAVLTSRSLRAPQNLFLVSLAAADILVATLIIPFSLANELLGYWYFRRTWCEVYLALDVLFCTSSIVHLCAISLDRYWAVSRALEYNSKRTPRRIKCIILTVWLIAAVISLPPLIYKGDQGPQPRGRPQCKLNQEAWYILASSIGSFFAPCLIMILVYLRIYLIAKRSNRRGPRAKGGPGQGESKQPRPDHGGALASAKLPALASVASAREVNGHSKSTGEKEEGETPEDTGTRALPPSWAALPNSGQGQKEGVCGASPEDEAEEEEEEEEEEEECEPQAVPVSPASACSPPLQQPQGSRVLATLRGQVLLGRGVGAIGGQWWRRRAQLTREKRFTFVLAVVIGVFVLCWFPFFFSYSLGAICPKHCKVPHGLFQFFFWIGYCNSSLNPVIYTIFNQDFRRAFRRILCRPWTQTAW

[3] = biological target: T2, Alpha-1B adrenergic receptor (Homo sapiens, UniProt P35368); experiment: as §1, with “ADRA1B” for “TMEM97”
T2 sequence (P35368 whole entry): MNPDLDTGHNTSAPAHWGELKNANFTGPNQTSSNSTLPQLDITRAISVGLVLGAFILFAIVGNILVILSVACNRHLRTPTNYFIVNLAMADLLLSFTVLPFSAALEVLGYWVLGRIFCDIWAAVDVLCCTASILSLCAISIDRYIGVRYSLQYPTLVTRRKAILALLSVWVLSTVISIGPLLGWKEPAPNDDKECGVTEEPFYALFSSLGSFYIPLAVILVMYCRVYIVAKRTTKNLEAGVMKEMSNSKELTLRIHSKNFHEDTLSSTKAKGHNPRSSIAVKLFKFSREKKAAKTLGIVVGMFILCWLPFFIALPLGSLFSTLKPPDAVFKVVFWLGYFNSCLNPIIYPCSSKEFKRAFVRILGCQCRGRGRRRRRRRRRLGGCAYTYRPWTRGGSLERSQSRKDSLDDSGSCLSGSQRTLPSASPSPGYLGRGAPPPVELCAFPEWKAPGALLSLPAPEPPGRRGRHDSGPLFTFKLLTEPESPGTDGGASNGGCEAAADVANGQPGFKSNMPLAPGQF

[4] = biological target: Sodium-dependent dopamine transporter (Homo sapiens, UniProt Q01959); experiment: as §1, with “SLC6A3” for “TMEM97”
Sodium-dependent dopamine transporter, sequence (Q01959 whole entry): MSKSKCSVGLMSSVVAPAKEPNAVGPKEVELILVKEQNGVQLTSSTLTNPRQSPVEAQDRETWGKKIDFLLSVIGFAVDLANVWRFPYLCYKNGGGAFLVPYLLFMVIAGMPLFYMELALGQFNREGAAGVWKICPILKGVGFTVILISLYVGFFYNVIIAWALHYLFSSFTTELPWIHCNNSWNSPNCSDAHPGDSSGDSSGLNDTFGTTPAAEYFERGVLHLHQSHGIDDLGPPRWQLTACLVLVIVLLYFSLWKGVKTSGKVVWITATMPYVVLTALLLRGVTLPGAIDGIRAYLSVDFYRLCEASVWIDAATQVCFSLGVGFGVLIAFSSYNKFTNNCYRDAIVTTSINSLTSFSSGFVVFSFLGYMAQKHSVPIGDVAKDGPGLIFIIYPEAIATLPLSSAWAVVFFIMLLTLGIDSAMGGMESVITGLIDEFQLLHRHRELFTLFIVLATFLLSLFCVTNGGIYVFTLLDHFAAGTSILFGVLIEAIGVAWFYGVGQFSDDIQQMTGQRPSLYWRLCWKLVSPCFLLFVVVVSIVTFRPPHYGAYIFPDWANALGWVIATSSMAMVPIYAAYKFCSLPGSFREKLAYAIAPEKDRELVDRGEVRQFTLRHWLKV

[5] = biological target: T3, D(4) dopamine receptor (Homo sapiens, UniProt P21917); experiment: as §1, with “DRD4” for “TMEM97”
T3 sequence (P21917 whole entry): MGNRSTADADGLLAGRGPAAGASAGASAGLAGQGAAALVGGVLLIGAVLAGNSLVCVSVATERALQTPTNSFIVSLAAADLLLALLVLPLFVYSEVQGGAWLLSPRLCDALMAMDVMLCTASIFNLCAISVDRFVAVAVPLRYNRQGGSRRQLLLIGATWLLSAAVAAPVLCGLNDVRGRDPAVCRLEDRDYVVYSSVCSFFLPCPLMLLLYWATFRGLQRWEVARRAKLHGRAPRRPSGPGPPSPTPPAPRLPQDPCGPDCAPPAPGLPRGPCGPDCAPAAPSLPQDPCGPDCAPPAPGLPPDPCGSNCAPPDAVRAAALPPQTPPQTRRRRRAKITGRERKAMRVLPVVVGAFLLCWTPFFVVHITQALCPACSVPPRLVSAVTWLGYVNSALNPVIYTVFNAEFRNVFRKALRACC

[6] = biological target: D(1B) dopamine receptor (Homo sapiens, UniProt P21918); experiment: as §1, with “DRD5” for “TMEM97”
D(1B) dopamine receptor, sequence (P21918 whole entry): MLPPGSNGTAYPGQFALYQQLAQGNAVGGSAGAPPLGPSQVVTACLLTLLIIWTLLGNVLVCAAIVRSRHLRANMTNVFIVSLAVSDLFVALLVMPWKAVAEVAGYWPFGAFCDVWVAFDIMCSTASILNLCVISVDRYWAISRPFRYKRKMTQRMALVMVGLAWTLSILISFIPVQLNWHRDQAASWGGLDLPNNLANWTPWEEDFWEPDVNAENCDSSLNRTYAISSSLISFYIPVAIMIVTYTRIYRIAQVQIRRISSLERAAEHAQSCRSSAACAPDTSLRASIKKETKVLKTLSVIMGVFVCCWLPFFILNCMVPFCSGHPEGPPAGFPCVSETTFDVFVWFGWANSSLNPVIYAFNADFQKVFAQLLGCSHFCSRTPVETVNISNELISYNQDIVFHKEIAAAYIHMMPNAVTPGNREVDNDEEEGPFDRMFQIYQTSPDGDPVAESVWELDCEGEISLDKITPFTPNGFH

[7] = biological target: Sodium-dependent noradrenaline transporter (Homo sapiens, UniProt P23975); experiment: as §1, with “SLC6A2” for “TMEM97”
Sodium-dependent noradrenaline transporter, sequence (P23975 whole entry): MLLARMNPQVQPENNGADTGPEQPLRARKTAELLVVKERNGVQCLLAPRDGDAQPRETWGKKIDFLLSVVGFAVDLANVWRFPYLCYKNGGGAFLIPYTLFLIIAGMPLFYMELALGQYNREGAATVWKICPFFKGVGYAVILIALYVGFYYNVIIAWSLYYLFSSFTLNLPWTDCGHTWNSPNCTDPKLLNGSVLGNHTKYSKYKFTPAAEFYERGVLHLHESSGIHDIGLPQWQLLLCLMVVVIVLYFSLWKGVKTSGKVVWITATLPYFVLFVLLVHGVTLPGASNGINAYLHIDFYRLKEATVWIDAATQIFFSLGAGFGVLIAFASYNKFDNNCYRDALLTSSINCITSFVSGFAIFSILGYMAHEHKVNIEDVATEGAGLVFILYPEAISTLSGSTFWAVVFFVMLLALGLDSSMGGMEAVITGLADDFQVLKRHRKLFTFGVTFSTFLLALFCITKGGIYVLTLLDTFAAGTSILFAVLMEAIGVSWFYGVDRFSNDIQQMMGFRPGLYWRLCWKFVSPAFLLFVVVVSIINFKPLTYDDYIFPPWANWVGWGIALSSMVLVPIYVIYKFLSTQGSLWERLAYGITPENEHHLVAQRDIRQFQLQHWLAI

[8] = biological target: T4, Alpha-2A adrenergic receptor (Homo sapiens, UniProt P08913); experiment: as §1, with “ADRA2A” for “TMEM97”
T4 sequence (P08913 whole entry): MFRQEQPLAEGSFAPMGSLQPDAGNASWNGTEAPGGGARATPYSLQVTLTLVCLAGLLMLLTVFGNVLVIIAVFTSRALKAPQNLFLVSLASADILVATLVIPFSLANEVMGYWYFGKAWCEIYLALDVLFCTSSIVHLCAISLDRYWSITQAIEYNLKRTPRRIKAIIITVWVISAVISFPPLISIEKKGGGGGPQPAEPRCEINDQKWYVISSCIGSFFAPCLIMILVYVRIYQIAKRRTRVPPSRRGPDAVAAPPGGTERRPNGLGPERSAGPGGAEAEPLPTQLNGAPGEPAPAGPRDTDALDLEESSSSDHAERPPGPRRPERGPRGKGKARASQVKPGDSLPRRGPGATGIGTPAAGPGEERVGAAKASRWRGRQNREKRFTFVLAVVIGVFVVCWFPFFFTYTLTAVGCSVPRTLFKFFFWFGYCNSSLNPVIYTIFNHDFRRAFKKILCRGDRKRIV

[9] = biological target: T5, Alpha-2C adrenergic receptor (Homo sapiens, UniProt P18825); experiment: as §1, with “ADRA2C” for “TMEM97”
T5 sequence (P18825 whole entry): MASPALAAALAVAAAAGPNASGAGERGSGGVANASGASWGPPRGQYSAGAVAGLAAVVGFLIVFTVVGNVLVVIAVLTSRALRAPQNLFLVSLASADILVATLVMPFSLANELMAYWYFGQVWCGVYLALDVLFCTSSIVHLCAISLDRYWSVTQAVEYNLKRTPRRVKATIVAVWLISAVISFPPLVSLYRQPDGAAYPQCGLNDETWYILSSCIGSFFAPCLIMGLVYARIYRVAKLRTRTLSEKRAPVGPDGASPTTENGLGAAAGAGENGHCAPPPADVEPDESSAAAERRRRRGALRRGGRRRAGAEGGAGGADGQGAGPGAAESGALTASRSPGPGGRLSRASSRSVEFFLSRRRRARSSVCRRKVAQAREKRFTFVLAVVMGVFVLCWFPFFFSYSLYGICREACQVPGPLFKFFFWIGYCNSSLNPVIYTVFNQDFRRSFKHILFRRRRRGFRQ

[10] = biological target: D(3) dopamine receptor (Homo sapiens, UniProt P35462); experiment: as §1, with “DRD3” for “TMEM97”
D(3) dopamine receptor, sequence (P35462 whole entry): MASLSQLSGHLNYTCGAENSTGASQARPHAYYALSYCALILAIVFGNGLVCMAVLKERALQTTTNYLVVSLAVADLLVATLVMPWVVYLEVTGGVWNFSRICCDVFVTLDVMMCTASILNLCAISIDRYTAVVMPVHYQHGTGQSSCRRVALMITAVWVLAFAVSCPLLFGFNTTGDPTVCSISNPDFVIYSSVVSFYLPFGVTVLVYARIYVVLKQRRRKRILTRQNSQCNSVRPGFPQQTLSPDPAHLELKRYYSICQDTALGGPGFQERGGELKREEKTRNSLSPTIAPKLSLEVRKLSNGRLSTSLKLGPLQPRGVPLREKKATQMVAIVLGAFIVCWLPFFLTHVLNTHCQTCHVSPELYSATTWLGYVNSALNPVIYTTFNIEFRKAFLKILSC

[11] = biological target: Kappa-type opioid receptor (Homo sapiens, UniProt P41145); experiment: as §1, with “OPRK1” for “TMEM97”
Kappa-type opioid receptor, sequence (P41145 whole entry): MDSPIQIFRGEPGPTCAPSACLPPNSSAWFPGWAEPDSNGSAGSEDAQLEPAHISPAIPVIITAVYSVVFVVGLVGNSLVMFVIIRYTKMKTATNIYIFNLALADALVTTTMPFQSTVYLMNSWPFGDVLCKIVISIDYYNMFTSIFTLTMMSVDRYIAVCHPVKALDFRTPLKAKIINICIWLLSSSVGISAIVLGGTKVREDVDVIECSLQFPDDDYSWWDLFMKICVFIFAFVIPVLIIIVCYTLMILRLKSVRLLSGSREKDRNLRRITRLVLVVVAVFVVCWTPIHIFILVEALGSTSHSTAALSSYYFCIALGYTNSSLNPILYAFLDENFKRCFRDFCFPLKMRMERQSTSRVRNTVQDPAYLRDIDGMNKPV

[12] = biological target: Mu-type opioid receptor (Homo sapiens, UniProt P35372); experiment: as §1, with “OPRM1” for “TMEM97”
Mu-type opioid receptor, sequence (P35372 whole entry): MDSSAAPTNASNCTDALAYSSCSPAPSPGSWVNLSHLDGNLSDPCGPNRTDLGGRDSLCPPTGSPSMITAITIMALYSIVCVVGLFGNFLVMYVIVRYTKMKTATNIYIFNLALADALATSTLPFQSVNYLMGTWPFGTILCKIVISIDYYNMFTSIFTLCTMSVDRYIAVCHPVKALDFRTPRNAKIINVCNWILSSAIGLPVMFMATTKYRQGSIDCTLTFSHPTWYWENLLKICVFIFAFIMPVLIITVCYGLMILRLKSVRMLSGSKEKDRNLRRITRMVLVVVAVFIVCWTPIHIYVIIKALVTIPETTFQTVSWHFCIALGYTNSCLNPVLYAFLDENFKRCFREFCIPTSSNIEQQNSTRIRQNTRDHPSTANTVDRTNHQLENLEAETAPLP

[13] = biological target: Sodium-dependent serotonin transporter (Homo sapiens, UniProt P31645); experiment: as §1, with “SLC6A4” for “TMEM97”
Sodium-dependent serotonin transporter, sequence (P31645 whole entry): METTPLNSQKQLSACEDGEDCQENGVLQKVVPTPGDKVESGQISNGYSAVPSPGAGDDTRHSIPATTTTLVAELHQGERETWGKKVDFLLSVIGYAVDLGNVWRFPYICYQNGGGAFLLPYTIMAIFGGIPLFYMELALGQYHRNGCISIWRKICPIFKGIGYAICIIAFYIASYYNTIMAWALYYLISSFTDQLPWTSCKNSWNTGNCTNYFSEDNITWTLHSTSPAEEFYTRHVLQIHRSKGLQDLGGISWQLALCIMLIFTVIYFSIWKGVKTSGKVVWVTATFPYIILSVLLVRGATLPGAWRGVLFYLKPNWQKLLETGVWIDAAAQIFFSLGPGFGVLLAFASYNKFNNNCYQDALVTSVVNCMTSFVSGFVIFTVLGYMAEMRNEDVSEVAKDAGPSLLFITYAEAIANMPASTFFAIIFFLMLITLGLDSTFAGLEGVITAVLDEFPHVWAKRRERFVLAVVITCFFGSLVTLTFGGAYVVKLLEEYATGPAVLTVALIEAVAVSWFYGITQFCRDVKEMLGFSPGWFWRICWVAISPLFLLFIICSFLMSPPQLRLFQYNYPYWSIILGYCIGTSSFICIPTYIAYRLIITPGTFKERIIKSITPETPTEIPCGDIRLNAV

[14] = biological target: Beta-3 adrenergic receptor (Homo sapiens, UniProt P13945); experiment: as §1, with “ADRB3” for “TMEM97”
Beta-3 adrenergic receptor, sequence (P13945 whole entry): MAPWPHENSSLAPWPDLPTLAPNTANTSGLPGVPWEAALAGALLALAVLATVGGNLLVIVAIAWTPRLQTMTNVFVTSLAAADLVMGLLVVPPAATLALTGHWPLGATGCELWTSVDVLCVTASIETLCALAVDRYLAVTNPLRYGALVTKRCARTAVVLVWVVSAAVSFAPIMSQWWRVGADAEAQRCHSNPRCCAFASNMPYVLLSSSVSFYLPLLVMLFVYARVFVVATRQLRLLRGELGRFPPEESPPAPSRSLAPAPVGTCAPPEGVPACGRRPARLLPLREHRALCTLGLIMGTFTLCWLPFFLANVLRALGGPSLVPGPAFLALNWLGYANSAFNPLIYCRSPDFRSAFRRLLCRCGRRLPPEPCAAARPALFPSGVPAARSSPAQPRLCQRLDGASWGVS

[15] = biological target: 5-hydroxytryptamine receptor 2B (Homo sapiens, UniProt P41595); experiment: as §1, with “HTR2B” for “TMEM97”
[16] = biological target: Translocator protein (Homo sapiens, UniProt P30536); experiment: as §1, with “TSPO” for “TMEM97”
Translocator protein, sequence (P30536 whole entry): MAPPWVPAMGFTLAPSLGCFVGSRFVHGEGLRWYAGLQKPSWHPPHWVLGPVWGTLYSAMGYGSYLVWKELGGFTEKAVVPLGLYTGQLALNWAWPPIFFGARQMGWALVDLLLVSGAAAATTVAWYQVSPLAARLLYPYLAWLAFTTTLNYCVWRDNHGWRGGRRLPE

[17] = biological target: T6, Muscarinic acetylcholine receptor M5 (Homo sapiens, UniProt P08912); experiment: as §1, with “CHRM5” for “TMEM97”
T6 sequence (P08912 whole entry): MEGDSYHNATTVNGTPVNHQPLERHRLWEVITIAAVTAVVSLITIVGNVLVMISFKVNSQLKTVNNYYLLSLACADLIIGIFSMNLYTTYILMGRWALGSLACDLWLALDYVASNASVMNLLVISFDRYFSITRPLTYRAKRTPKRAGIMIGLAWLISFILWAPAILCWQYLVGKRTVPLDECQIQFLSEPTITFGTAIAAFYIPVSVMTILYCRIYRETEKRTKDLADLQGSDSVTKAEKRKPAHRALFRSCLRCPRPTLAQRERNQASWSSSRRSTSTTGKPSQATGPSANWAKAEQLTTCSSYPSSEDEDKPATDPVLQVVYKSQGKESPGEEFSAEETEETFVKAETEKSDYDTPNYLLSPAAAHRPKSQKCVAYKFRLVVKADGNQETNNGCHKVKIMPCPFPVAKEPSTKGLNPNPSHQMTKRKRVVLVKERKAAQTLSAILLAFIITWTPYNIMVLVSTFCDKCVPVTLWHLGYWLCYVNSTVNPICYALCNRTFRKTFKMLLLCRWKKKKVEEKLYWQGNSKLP

[18] = biological target: Sigma non-opioid intracellular receptor 1 (Homo sapiens, UniProt Q99720); experiment: as §1, with “SIGMAR1” for “TMEM97”
Sigma non-opioid intracellular receptor 1, sequence (Q99720 whole entry): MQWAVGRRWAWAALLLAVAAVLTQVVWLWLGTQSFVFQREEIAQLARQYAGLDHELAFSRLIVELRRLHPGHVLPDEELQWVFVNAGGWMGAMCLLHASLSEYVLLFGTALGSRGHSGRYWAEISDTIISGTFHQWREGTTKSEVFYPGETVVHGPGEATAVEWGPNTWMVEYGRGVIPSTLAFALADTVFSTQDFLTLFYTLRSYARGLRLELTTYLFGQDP

Structure (SMILES)	Ki [1] [nM]	Ki [2] [nM]	Ki [4] [nM]	Ki [8] [nM]	Ki [10] [nM]	Ki [14] [nM]	Ki [16] [nM]	Ki [18] [nM]	further results
NC[C@@H]1O[C@H](C23CC4CC(CC(C4)C2)C3)Cc2c1ccc(O)c2O	754	890	478	898	545				Ki [3]: 4210 nM; Ki [5]: 562 nM; Ki [6]: 3.02 nM; Ki [7]: 951 nM; Ki [9]: 71.7 nM
CC1CCN(CC[C@H]2CCCN2S(=O)(=O)c2cccc(O)c2)CC1	10.2	311		1180	568				Ki [11]: 448 nM; Ki [6]: > 10000 nM; Ki [12]: 185 nM; Ki [13]: > 10000 nM; Ki [9]: 1740 nM
CC(C)NCC(O)c1ccc(N)c(C#N)c1 (centres undefined) [CIMATEROL]						1870			
C[C@@H](NCCc1ccc(O)cc1)[C@@H](O)c1ccc(O)cc1 (relative stereo)	2670					3730		587	Ki [7]: 2580 nM; Ki [12]: 7850 nM; Ki [13]: 4050 nM

More lines, main results first:

Ki [1] [nM]	Ki [2] [nM]	Ki [4] [nM]	Ki [8] [nM]	Ki [10] [nM]	Ki [14] [nM]	Ki [16] [nM]	Ki [18] [nM]	Structure (SMILES)	further results
		402	> 10000	1110	> 10000	1380		Cc1cc([C@@H](C)Nc2cccc(-c3cc(C)c(C(=O)N[C@@H](C)C(=O)O)c(C)c3)c2)ccc1Cl	Ki [15]: 2480 nM
			> 10000		> 10000			CCC[C@H](Oc1cc(C)c(-n2cc(C(F)(F)F)cn2)c(C)c1)c1ccc(C(=O)NCCC(=O)O)cc1 [PF-06291874]	Ki [17]: 8580 nM
		2850			8660	3030		N#Cc1ccc(NC(=O)Nc2ccccc2Br)c2nn[nH]c12	
2000				581	8880	799	958	Cc1csc2c(N[C@@H](C)CN3CCN(S(=O)(=O)c4ccc(Cl)c(Cl)c4)CC3)ncnc12	Ki [11]: 494 nM
1710	> 10000				6980	1950	2690	Cc1nc(C#Cc2ccnc(Cl)c2)c(C)n1-c1ccc(OC(F)(F)F)cc1	
